Source: patent EP4786473A1, “PHARMACEUTICALLY ACCEPTABLE SALT AND CRYSTALLINE FORM OF QUINAZOLINE DERIVATIVE, AND USE THEREOF” (Jiangsu Hengrui Pharmaceuticals Co., Ltd., priority 2023, dated 2025)
Read-outs that look alike come from different tables or passages of the source. Each block holds one compound with its values, some of them ahead of it.

What was measured:
[1] = Long-term/accelerated stability; type: physicochemical
[2] = DVS (dynamic vapor sorption) hygroscopicity test; type: physicochemical
Experimental: DVS refers to dynamic vapor sorption and is determined using SMS DVS Advantage at 25°C, with the humidity change of 50%-95%-0%-95%-50% and the stepping of 10% (5% for the last step) (the specific humidity range is determined in accordance with the corresponding plot, and the methods listed herein are those most commonly used), and the standard for determination is as follow: dm/dt is not more than 0.002%.
100 mg of the compound of formula 1 was dissolved in 1 mL of acetone to give a clear solution. An aqueous p-toluenesulfonic acid solution (97.10 µL, 2 M) was added to the resulting solution. The mixture was stirred and centrifuged. The resulting solid was collected and dried under vacuum to obtain a product. […] The p-toluenesulfonate ion content of the product was detected to be 22.63% by ion chromatography. […] Furthermore, the crystal form was re-detected and found to be unchanged following the DVS test.

[3] = Stability study under influencing factors; type: physicochemical
Description: The sampling and investigation period was 1 month.

[4] = system: HER2 wild-type Ba/F3 cells; test: Ba/F3 cell proliferation assay (HER2 wild-type); type: cell-based; settings: 72 hours, Celltiter-Glo
Experimental: (§1) EGFR wild-type Ba/F3 cells in the logarithmic growth phase (Cobioer, Cat. No.: CBP73110) were seeded into 96-well plates at a density of 2.5 × 10^3 cells/100 uL of growth culture medium. HER2 wild-type Ba/F3 cells (Cobioer, Cat. No.: CBP73110) or HER2 A775_G776insYVMA mutant Ba/F3 cells (Cobioer, Cat. No.: CBP73184) in the logarithmic growth phase were seeded into 96-well plates at a density of 5 × 10^3 cells/100 uL of growth culture medium. The plates were incubated overnight in a 37°C cell incubator. The following day, the compound, which had been serially diluted 3-fold in growth culture medium, was added at 100 uL/well. All treatments were performed in triplicate. The plates were incubated in the 37°C cell incubator for another 72 hours. Celltiter-Glo Luminescent Cell Viability Assay was performed.
(§2) The cell proliferation rate was calculated for each well according to the following formula: Proliferation (%) = (G3 - G0 mean value of test compound wells)/(G3 mean value - GO mean value of DMSO control wells)*100. Based on the proliferation rate corresponding to each gradient concentration well and concentration thereof, the gradient curve of cell proliferation was fitted using Prism Graphpad software, and the GI50 of the compound was calculated (GI50 is defined as the compound concentration required to achieve a 50% inhibition rate of cell proliferation).

[5] = system: EGFR wild-type Ba/F3 cells; test: Ba/F3 cell proliferation assay (EGFR wild-type); type: cell-based; settings: 72 hours, Celltiter-Glo
Experimental: as §1, §2

[6] = system: HER2 A775_G776insYVMA mutant Ba/F3 cells; test: Ba/F3 cell proliferation assay (HER2 exon 20 YVMA insertion mutant); type: cell-based; settings: 72 hours, Celltiter-Glo; for GI50: read-out: HER2 A775_G776 ins YVMA/BaF 3 GI50
Experimental: as §1, §2

[7] = 75% RH, 1 month, open container
[8] = 75% RH, 13 days, open container
[9] = 92.5% RH, 1 month, open container
[10] = 92.5% RH, 13 days, open container
[11] = 4500 Lux, 1 month, open container
[12] = 4500 Lux, 7 days, open container
[13] = 4500 Lux, 13 days, open container

Compound: C=CC(=O)N1[C@@H]2CC[C@H]1C[C@@H](Oc1ccc3ncnc(Nc4ccc(Oc5ccn6ncnc6c5)c(C)c4F)c3c1)C2 [Crystal form I of p-toluenesulfonate, 1-(endo-3-((4-((4-([1,2,4]triazolo[1,5-a]pyridin-7-yloxy)-2-fluoro-3-methylphenyl)amino)quinazolin-6-yl)oxy)-8-azabicyclo[3.2.1]oct-8-yl)prop-2-en-1-one]
Colour and trait ([1]; 25°C/60% RH, 1 month): White powder | Purity% ([1]; 25°C/60% RH, 1 month): 99.7% | Salt form ([1]; 25°C/60% RH, 1 month): Unchanged | Colour and trait ([1]; 25°C/60% RH, 2 months): White powder | Purity% ([1]; 25°C/60% RH, 2 months): 99.7% | Salt form ([1]; 25°C/60% RH, 2 months): Unchanged | Colour and trait ([1]; 25°C/60% RH, 3 months): White powder | Purity% ([1]; 25°C/60% RH, 3 months): 99.7% | Salt form ([1]; 25°C/60% RH, 3 months): Unchanged | Colour and trait ([1]; 25°C/60% RH, 6 months): White powder | Purity% ([1]; 25°C/60% RH, 6 months): 99.7% | Salt form ([1]; 25°C/60% RH, 6 months): Unchanged | Colour and trait ([1]; 25°C/60% RH, 14 days): White powder | Purity% ([1]; 25°C/60% RH, 14 days): 99.7% | Salt form ([1]; 25°C/60% RH, 14 days): Unchanged | Colour and trait ([1]; 40°C/75% RH, 1 month): White powder | Purity% ([1]; 40°C/75% RH, 1 month): 99.7% | Salt form ([1]; 40°C/75% RH, 1 month): Unchanged | Colour and trait ([1]; 40°C/75% RH, 2 months): White powder | Purity% ([1]; 40°C/75% RH, 2 months): 99.7% | Salt form ([1]; 40°C/75% RH, 2 months): Unchanged | Colour and trait ([1]; 40°C/75% RH, 3 months): White powder | Purity% ([1]; 40°C/75% RH, 3 months): 99.7% | Salt form ([1]; 40°C/75% RH, 3 months): Unchanged | Colour and trait ([1]; 40°C/75% RH, 6 months): White powder | Purity% ([1]; 40°C/75% RH, 6 months): 99.7% | Salt form ([1]; 40°C/75% RH, 6 months): Unchanged | Colour and trait ([1]; 40°C/75% RH, 14 days): White powder | Purity% ([1]; 40°C/75% RH, 14 days): 99.6% | Salt form ([1]; 40°C/75% RH, 14 days): Unchanged | Colour and trait ([1]; Initial, 0 day): White powder | Purity% ([1]; Initial, 0 day): 99.7% | Salt form ([1]; Initial, 0 day): Crystal form I of p-toluenesulfonate | weight gain after moisture absorption ([2]; accelerated test conditions (70% RH)): about 1.57% | crystal form re-detected following the DVS test ([2]; after DVS test): unchanged | weight gain after moisture absorption ([2]; extreme conditions (90% RH)): about 2.21% | weight gain after moisture absorption ([2]; normal storage conditions (25°C, 60% RH)): about 1.18% | Colour and trait ([3]; 40°C, 1 month, open container): White powder | Purity% ([3]; 40°C, 1 month, open container): 95.2% | Salt form ([3]; 40°C, 1 month, open container): Unchanged | Colour and trait ([3]; 40°C, 7 days, open container): White powder | Purity% ([3]; 40°C, 7 days, open container): 98.7% | Salt form ([3]; 40°C, 7 days, open container): Unchanged | Colour and trait ([3]; 40°C, 13 days, open container): White powder | Purity% ([3]; 40°C, 13 days, open container): 97.6% | Salt form ([3]; 40°C, 13 days, open container): Unchanged | Colour and trait ([3]; 60°C, 1 month, open container): White powder | Purity% ([3]; 60°C, 1 month, open container): 94.9% | Salt form ([3]; 60°C, 1 month, open container): Unchanged | Colour and trait ([3]; 60°C, 7 days, open container): White powder | Purity% ([3]; 60°C, 7 days, open container): 98.7% | Salt form ([3]; 60°C, 7 days, open container): Unchanged | Colour and trait ([3]; 60°C, 13 days, open container): White powder | Purity% ([3]; 60°C, 13 days, open container): 97.8% | Salt form ([3]; 60°C, 13 days, open container): Unchanged | Colour and trait [3, 7]: White powder | Purity% [3, 7]: 99.7% | Salt form [3, 7]: Unchanged | Colour and trait [3, 8]: White powder | Purity% [3, 8]: 99.7% | Salt form [3, 8]: Unchanged | Colour and trait [3, 9]: White powder | Purity% [3, 9]: 99.7% | Salt form [3, 9]: Unchanged | Colour and trait [3, 10]: White powder | Purity% [3, 10]: 99.7% | Salt form [3, 10]: Unchanged | Colour and trait [3, 11]: White powder | Purity% [3, 11]: 99.1% | Salt form [3, 11]: Unchanged | Colour and trait [3, 12]: White powder | Purity% [3, 12]: 99.6% | Salt form [3, 12]: Unchanged | Colour and trait [3, 13]: White powder | Purity% [3, 13]: 99.5% | Salt form [3, 13]: Unchanged | Colour and trait ([3]; Initial, 0 day): White powder | Purity% ([3]; Initial, 0 day): 99.7% | Salt form ([3]; Initial, 0 day): Crystal form I of p-toluenesulfonate

Compound: C=CC(=O)N1[C@@H]2CC[C@H]1C[C@@H](Oc1ccc3ncnc(Nc4ccc(Oc5ccn6ncnc6c5)c(C)c4F)c3c1)C2 [Example 1, 1-(endo-3-((4-((4-([1,2,4]triazolo[1,5-a]pyridin-7-yloxy)-2-fluoro-3-methylphenyl)amino)quinazolin-6-yl)oxy)-8-azabicyclo[3.2.1]oct-8-yl)prop-2-en-1-one]
HER2 WT/BaF 3 Imax % [4]: 100% | GI50 ([4]; read-out: HER2 WT/Ba F3 GI50): 9.3 nM | EGFR WT/BaF 3 Imax % [5]: 100% | GI50 ([5]; read-out: EGFR WT/BaF3 GI50): 2840 nM | HER2 A775_G77 6 ins YVMA/Ba F3 Imax % [6]: 100% | GI50 [6]: 10.3 nM

GI50 ([6]; Mus musculus, BaF3): 309 nM
Compound: Cc1cc(Nc2ncnc3ccc(NC4=NC(C)(C)CO4)cc23)ccc1Oc1ccn2ncnc2c1 [Tucatinib, reference compound]
HER2 A775_G77 6 ins YVMA/Ba F3 Imax % [6]: 100%
